Test results from PubChem BioAssay (NCI).
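Assay format: 96-well plates, 48-hour exposure. TGI: concentration producing complete growth inhibition.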

How the values were obtained:
Assay in all cases: inhibition of tumour cell growth, NCI panel, 48 h
[1] = test system: SK-MEL-28 melanoma
[2] = test system: COLO 205 colon
[3] = test system: MOLT-4 leukemia
[4] = test system: K-562 leukemia
[5] = test system: NCI-H226 lung
[6] = test system: NCI-H522 lung
[7] = test system: HT29 colon
[8] = test system: ACHN renal
[9] = test system: MDA-MB-435
[10] = test system: SN12C renal

SMILES	TGI [1]	TGI [2]	TGI [3]	TGI [4]	TGI [5]	TGI [6]	TGI [7]	TGI [8]	TGI [9]	TGI [10]
COc1ccc(/C=C2\CCC(CNc3ccc(OC)cc3)C2=O)cc1 (stereo not given)	37.5 µM	31.9 µM	> 40.8 µM	> 33.3 µM	> 100 µM	11.6 µM	33.2 µM	58.6 µM	40.6 µM	33.1 µM
COC(=O)C1CCC(=O)N1C(c1ccc(OC)cc1)c1ccc(OC)cc1 (stereo not given)	> 100 µM	> 100 µM	> 100 µM	> 100 µM	> 100 µM	> 100 µM	> 100 µM	> 100 µM	> 100 µM	> 100 µM
N=c1c2c(-c3ccccc3)c[nH]c2ncn1N	> 100 µM	> 100 µM	> 100 µM	> 100 µM	> 100 µM	> 100 µM	> 100 µM	> 100 µM	> 100 µM	> 100 µM
NC1CC2NC3CCCCC3NC2CC1N (stereo not given)	> 100 µM	> 100 µM	92.9 µM	> 100 µM	> 100 µM	39.9 µM	> 100 µM	> 100 µM	> 100 µM	> 100 µM
CC1OC2(CC(OCc3ccccc3)C1OCc1ccccc1)OCCO2 (stereo not given)	> 100 µM	> 100 µM	75.2 µM	> 100 µM	> 100 µM	> 100 µM	58.2 µM	> 100 µM	> 100 µM	> 100 µM
Nc1[nH]c(=S)nc2snnc12	> 100 µM	> 100 µM	> 100 µM	> 100 µM	> 100 µM	> 100 µM	> 100 µM	> 100 µM	> 100 µM	> 100 µM
CCOC(=O)c1c(N2CCCC2)[nH]c(=O)c(C(c2ccco2)c2c(O)c(C(=O)OCC)c(N3CCCC3)[nH]c2=O)c1O	> 100 µM	> 100 µM	> 100 µM	> 100 µM	> 100 µM	> 100 µM	> 100 µM	> 100 µM	> 100 µM	> 100 µM
Brc1ccc2c([C@H]3CN[C@@H](c4c[nH]c5cc(Br)ccc45)CN3)c[nH]c2c1	27.2 µM	2.91 µM	6.48 µM	4.02 µM	20.8 µM	3.15 µM	4.01 µM	9.87 µM	3.11 µM	12.4 µM
CCOC(=O)C(Cl)(NC(=O)c1c(F)c(F)c(F)c(F)c1F)C(F)(F)F (stereo not given)	> 100 µM	> 100 µM	> 100 µM	> 100 µM	> 100 µM	54.7 µM	> 100 µM	> 100 µM	> 100 µM	> 100 µM
CC1OC(O[C@H]2C3C=CO[C@@H](OC4OC(CO)C(O)C(O)C4O)C3[C@@]3(COC(=O)/C=C/c4ccc(O)cc4)O[C@@H]23)C(O)C(O)C1O (stereo not given in full)	> 100 µM	> 100 µM	> 100 µM	> 100 µM	> 100 µM	> 100 µM	> 100 µM	> 100 µM	> 100 µM	> 100 µM
C#CC1(O)C(COP(=O)(O)OCC2OC(n3ccc(NCCCCCCCCCCCCCCCCCC)nc3=O)C(O)C2O)OC(n2ccc(N)nc2=O)C1O (stereo not given)	31.6 µM	> 32.9 µM	40 µM	19.9 µM	> 46.4 µM	0.773 µM	> 95 µM	> 53.3 µM	7.57 µM	39.9 µM
Cc1ccc(-n2[nH]nc(C#N)c2=O)cc1	> 100 µM	> 100 µM	> 100 µM	> 100 µM	> 100 µM	> 100 µM	> 100 µM	> 100 µM	> 100 µM	> 100 µM
Cc1cc(C)nc(SC(C)C(=O)N/N=C/c2ccc(OCc3ccccc3)cc2)n1 (stereo not given)	> 100 µM	91.6 µM	86.1 µM	> 100 µM	93.5 µM	> 100 µM	> 100 µM	> 100 µM	> 100 µM	> 100 µM
CCCCN1C(=O)c2c(-c3sccc3N)sc(-c3sccc3N)c2C1=O	36.7 µM	> 46.7 µM	> 24.4 µM	> 100 µM	42.7 µM	> 100 µM	44.5 µM	> 100 µM	> 100 µM	> 55 µM
Nc1nc(Cl)cc(NCCC2(CO)CCC2)n1	> 100 µM	> 100 µM	> 100 µM	> 100 µM	> 100 µM	> 100 µM	> 100 µM	> 100 µM	> 100 µM	> 100 µM
